“And” between values parts separate entries of the source, which are not always exact repeats. Equal values may be shown once.
Tests used:
[1] = molecular target: human AChE (hAChE; EC 3.1.1.7) (Homo sapiens, UniProt P22303); assay: biochemical; conditions: for IC50: mean of at least three experiments, read-out: IC50 hAChE ± STD; for SI (hBChE/hAChE): ratio IC50(hBChE)/IC50(hAChE)
Method: (§1) For that purpose, Ellman’s colorimetric assay was used[35].
(§2) The catalytic activity of both cholinesterases was determined by standard Ellman’s method adapted for 96-well plates. All tested inhibitors were freshly prepared in 50% DMSO/50% methanol at 10 mM concentration as stock solutions and then diluted in 0.1 M phosphate buffer, pH 7.4. […] The mixture was pre-incubated at 37 °C for 15 min and subsequently substrate (acetylthiocholine iodide or butyrylthiocholine iodide) was added to the final concentration of 1000 μM. The final volume of the reaction was 100 μL. The catalytic activity was evaluated as the amount of product (%) formed by enzyme after 10 min of incubation at 37 °C. The IC50 values from three independent experiments for each inhibitor concentration in triplicate were calculated using non-linear regression curve analysis in Prism version 7 Software (GraphPad Software Inc., San Diego, CA).

[2] = molecular target: human butyrylcholinesterase (hBChE; EC 3.1.1.8) (Homo sapiens, UniProt P06276); assay: biochemical; conditions: mean of at least three experiments; read-out: IC50 hBChE ± STD
human butyrylcholinesterase (hBChE; EC 3.1.1.8), sequence (P06276 29-602): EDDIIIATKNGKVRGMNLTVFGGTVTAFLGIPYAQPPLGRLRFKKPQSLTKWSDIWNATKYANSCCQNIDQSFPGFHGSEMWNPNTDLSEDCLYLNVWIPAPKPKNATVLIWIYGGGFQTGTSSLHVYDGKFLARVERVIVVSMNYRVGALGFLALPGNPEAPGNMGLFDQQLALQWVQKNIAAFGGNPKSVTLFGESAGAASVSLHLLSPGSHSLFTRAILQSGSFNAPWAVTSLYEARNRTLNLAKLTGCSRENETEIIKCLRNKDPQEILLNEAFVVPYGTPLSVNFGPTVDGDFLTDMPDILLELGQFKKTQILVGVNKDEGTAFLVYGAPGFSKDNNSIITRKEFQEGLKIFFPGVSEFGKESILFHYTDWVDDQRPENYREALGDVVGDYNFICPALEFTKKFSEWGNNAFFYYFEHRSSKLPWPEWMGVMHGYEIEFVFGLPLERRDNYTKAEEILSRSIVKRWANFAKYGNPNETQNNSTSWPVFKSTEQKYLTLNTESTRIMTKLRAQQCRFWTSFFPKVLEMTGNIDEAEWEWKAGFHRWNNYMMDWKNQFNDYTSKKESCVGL
Method: as §1, §2

in vitro = conditions: PAMPA, pH 7.4
Method: (§4) The PAMPA was used as the non-cell-based in vitro assay to predict BBB penetration carried out in a coated 96-well membrane filter[44]^,[52]. […] Tested compounds were dissolved first in DMSO and then diluted with PBS (pH 7.4) to achieve the final concentration of 100 µM in the donor well. […] An aliquot of 300 µL of the donor solution (VD) was added to the donor wells and the donor filter plate was carefully put on the acceptor plate so that coated membrane was "in touch" with both donor solution and acceptor buffer. […] The concentration of the tested compound in both the donor and acceptor wells was assessed after 3, 4, 5, and 6 h of incubation, respectively, in quadruplicate using a multi-plate reader Spark (Tecan GmbH, Grödig, Austria) at the maximum absorption wavelength of each compound. Also prepared were solutions at the theoretical equilibrium of the given compound (i.e. the theoretical concentration if the donor and acceptor compartment were simply combined).

hMAO-A = molecular target: T1, hMAO-A (Homo sapiens, UniProt P21397); assay: hMAO-A inhibition, kynuramine substrate, HPLC-MS; type: biochemical; conditions: residual enzyme activity; for % of MAO-A activity (1 µM): compound at 1 µM; for % of MAO-A activity (10 µM): compound at 10 µM
T1 construct: purchased Sigma-Aldrich (St. Louis, MO, USA)
T1 sequence (P21397 1-527): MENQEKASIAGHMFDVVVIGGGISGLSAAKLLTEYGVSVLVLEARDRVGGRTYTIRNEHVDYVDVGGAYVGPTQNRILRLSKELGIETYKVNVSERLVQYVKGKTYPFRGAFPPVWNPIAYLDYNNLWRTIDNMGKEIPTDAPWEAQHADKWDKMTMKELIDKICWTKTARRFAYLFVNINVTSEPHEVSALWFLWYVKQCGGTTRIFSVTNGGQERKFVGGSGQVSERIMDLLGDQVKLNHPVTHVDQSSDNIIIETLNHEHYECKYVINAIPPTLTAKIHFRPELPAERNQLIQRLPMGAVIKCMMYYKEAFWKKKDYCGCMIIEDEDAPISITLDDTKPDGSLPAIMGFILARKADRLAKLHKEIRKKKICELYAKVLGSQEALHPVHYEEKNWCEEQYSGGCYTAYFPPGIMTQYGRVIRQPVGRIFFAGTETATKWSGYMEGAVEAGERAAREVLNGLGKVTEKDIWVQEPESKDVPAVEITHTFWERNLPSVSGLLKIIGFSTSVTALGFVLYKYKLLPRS
Method: (§3) The hMAO-A and hMAO-B enzymes were purchased from Sigma-Aldrich (St. Louis, MO, USA). […] The mixture was pre-incubated at 37 °C for 5 min and subsequently substrate kynuramine was added to the final concentration of 60 µM in the case of hMAO-A and 30 µM in the case of hMAO-B. The final volume of reaction mixture was 0.1 mL. The whole reaction mixture was incubated at 37 °C for 30 min. The reaction was stopped by the addition of 200 µL acetonitrile/methanol mixture (ratio 1:1) and cooling down to 0 °C. […] Eluents: (A) 0.1% formic acid in water; (B) 0.1% formic acid in acetonitrile.

[3] = system: human neuroblastoma cell line (SH-SY5Y); assay: MTT cytotoxicity on SH-SY5Y; conditions: 24 h, read-out: IC50 ± SEM SH-SY5Y
Method: (§5) Briefly, HepG2 and SH-SY5Y cells were seeded into 96-well plates in 100 µL and density of 15 × 10^3 and 20 × 10^3 cells per well, respectively. Cells were allowed to attach overnight. The stock solutions of tested compounds were prepared in DMSO (Sigma-Aldrich), further serially diluted in cultivation medium and added to the cells in 96-well culture plate. […] After 24 h was the medium aspirated and 100 µL MTT solution (0.5 mg/mL) in serum free DMEM medium was added to each well. The cells were then incubated for one hour. The medium was then aspirated and purple crystals of MTT formazan were dissolved in 100 µL DMSO under shaking. The absorbance was measured with a multimode microplate reader Spark® (Tecan Trading AG, Männedorf, Switzerland) at test wavelength of 570 nm.
(§6) The data were obtained from three independent experiments performed in triplicates. The IC50 values were expressed as a mean ± standard error of the mean (SEM).

[4] = system: human hepatocellular carcinoma cell line (HepG2); assay: MTT cytotoxicity on HepG2; conditions: HepG2, 24 h, read-out: IC50 ± SEM HepG2
Method: as §5, §6

hMAO-B = molecular target: T2, hMAO-B (Homo sapiens, UniProt P27338); assay: biochemical; conditions: for % of MAO-B activity (1 µM) / % of MAO-B activity (10 µM): residual enzyme activity; for % of MAO-B activity (1 µM): compound at 1 µM; for % of MAO-B activity (10 µM): compound at 10 µM; for IC50: IC50 hMAO-B ± STD, mean of at least three experiments
T2 construct: purchased Sigma-Aldrich (St. Louis, MO, USA)
T2 sequence (P27338 1-520): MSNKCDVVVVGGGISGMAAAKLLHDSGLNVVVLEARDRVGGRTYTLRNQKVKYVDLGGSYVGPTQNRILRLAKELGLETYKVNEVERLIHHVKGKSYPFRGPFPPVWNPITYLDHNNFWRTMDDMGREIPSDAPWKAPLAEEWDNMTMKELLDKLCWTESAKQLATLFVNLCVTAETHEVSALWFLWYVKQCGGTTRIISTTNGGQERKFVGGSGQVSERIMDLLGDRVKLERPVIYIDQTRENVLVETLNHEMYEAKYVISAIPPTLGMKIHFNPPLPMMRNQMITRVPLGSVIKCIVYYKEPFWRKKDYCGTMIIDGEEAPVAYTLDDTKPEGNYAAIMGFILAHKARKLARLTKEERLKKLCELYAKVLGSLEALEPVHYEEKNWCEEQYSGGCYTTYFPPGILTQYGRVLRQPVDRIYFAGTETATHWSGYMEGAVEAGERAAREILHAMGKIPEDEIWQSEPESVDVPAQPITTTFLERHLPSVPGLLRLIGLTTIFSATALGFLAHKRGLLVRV
Method: as §3

[5] = class from PAMPA Pe
Method: as §4

SH-SY5Y cells = system: SH-SY5Y cells; design: method as in PMID 25792506; conditions: 10, 50 and 100 µM, MTT; cited from earlier work
[6] = system: human hepatic stellate cells; design: method as in PMID 25792506; conditions: cited from earlier work

human AChE (hAChE; EC 3.1.1.7), sequence (P22303 32-614): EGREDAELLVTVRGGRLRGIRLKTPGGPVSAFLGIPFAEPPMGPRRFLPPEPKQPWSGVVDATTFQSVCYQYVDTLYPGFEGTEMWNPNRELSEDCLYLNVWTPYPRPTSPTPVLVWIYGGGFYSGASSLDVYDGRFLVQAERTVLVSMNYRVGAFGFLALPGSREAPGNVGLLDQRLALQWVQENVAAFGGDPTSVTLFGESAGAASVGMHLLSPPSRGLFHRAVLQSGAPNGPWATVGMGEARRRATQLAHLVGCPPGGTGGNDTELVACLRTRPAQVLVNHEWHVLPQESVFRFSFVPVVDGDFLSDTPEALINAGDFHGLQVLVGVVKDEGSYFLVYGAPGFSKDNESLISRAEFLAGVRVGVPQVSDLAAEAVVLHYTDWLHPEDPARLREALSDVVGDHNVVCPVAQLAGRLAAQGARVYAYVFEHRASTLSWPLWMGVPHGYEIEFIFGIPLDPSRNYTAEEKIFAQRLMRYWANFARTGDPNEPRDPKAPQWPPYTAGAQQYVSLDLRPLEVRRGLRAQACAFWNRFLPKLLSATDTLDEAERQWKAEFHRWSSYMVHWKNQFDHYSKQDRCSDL

| SMILES | IC50 [1] | SI (hBChE/hAChE) [1] | IC50 [2] | Papp at 100 µM (in vitro) | % of MAO-A activity (1 µM) (hMAO-A) | % of MAO-A activity (10 µM) (hMAO-A) | IC50 [3] | IC50 [4] | % of MAO-B activity (1 µM) (hMAO-B) | % of MAO-B activity (10 µM) (hMAO-B) | Papp (in vitro) | CNS predicted availability [5] | effect on the viability of SH-SY5Y cells (SH-SY5Y cells) | hepatotoxicity ([6]; 100 µM) | cell survival rate ([6]; 200 µM) | IC50 (hMAO-B) |
| --- | --- | --- | --- | --- | --- | --- | --- | --- | --- | --- | --- | --- | --- | --- | --- | --- |
| C#CCNCCCNc1c2c(nc3ccccc13)CCCC2.Cl.Cl [Compound 21, N-(Prop-2-yn-1-yl)-N'-(1,2,3,4-tetrahydroacridin-9-yl)propane-1,3-diamine dihydrochloride] | 0.095 ± 0.001 µM | 0.98 | 0.093 ± 0.003 µM | 6.07 ± 0.53 ×10⁻⁶ cm/s | 47% | 54% | 38.8 ± 0.75 µM | 25.9 ± 0.73 µM | 88% | 90% |  |  |  |  |  |  |
| COc1ccc2nc3c(c(N)c2c1)CCCC3 [Compound 7-MEOTA, 7-methoxytacrine, reference compound] |  |  |  |  | 41% | 42% | 53.26 ± 0.38 µM | 44.4 ± 3.35 µM | 78% | 76% | 17 ± 3.6 ×10⁻⁶ cm/s | CNS+ (CNS + (high BBB permeation predicted): Pe (×10^−6 cm s^−1) > 4.0) |  |  |  |  |
| C#CCNc1c2c(nc3ccccc13)CCCC2 [Compound 9] | 0.094 ± 0.0008 µM | 1.72 | 0.162 ± 0.008 µM |  | 94% | 56% |  |  | 83% | 61% |  |  | nearly no effect on the viability | nearly no hepatotoxicity | 91.38% |  |
| C#CCNc1c2c(nc3ccc(Oc4ccccc4)cc13)CCCC2.Cl [Compound 15, 7-Phenoxy-N-(prop-2-yn-1-yl)-1,2,3,4-tetrahydroacridin-9-amine hydrochloride] | 1.47 ± 0.024 µM | 0.45 | 0.659 ± 0.077 µM | 10.4 ± 0.94 ×10⁻⁶ cm/s | 41% | 51% | 23.4 ± 2.55 µM | 16.9 ± 0.77 µM | 8% | 3% |  |  |  |  |  | 0.04 µM and 0.0404 µM |
| C=CCNc1c2c(nc3ccc(Oc4ccccc4)cc13)CCCC2.Cl [Compound 7, 7-Phenoxy-N-(prop-2-en-1-yl)-1,2,3,4-tetrahydroacridin-9-amine hydrochloride] | 1.12 ± 0.021 µM | 2.47 | 2.77 ± 0.133 µM | 4.22 ± 0.17 ×10⁻⁶ cm/s | 99% | 90% | 12.4 ± 0.44 µM | 10.3 ± 0.83 µM | 5% | 2% |  |  |  |  |  | 0.163 µM |
| C#CCN(CC#C)CCCNc1c2c(nc3ccccc13)CCCC2.Cl.Cl [Compound 20, N,N-Di(prop-2-yn-1-yl)-N'-(1,2,3,4-tetrahydroacridin-9-yl)propane-1,3-diamine dihydrochloride] | 0.198 ± 0.024 µM | 0.39 | 0.078 ± 0.003 µM | 12.2 ± 1.12 ×10⁻⁶ cm/s | 78% | 33% | 31.4 ± 1.55 µM | 38.3 ± 1.75 µM | 148% | 96% |  |  |  |  |  |  |
| Nc1c2c(nc3cc(Cl)ccc13)CCCC2 [6-Chlorotacrine, 6-chlorotacrine, reference compound] |  |  |  | 11 ± 0.5 ×10⁻⁶ cm/s | 61% | 48% | 50.4 ± 1.28 µM | 43.2 ± 1.17 µM | 80% | 84% |  | CNS+ (CNS + (high BBB permeation predicted): Pe (×10^−6 cm s^−1) > 4.0) |  |  |  |  |

Source: PMC9518283 (Journal of Enzyme Inhibition and Medicinal Chemistry, 2022)
